Data: patent US8283361B2 (AstraZeneca AB, priority 2008, dated 2012)
Where “and” joins values, the source holds several entries; their conditions need not be identical. Identical values can stand only once. Counter-ions that a name gives are not always drawn.

Molecular target: S. aureus GyrB ATPase (Staphylococcus aureus, UniProt P0A0K8)
Experiment: biochemical
Conditions: compound at 1 μM, one value per test if tested more than once; for inhibition at 1 µM: read-out: % Inhibition of S. aureus GyrB ATPase; for % Inhibition of S. aureus GyrB ATPase: 1 µM
Method in brief: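 IC50 values derive from 10-point titrations of compound (in DMSO). Phosphate formed from 250 μM ATP was quantified by acidic molybdate/malachite green after quenching.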

Chain of S. aureus GyrB ATPase (P0A0K8 whole entry): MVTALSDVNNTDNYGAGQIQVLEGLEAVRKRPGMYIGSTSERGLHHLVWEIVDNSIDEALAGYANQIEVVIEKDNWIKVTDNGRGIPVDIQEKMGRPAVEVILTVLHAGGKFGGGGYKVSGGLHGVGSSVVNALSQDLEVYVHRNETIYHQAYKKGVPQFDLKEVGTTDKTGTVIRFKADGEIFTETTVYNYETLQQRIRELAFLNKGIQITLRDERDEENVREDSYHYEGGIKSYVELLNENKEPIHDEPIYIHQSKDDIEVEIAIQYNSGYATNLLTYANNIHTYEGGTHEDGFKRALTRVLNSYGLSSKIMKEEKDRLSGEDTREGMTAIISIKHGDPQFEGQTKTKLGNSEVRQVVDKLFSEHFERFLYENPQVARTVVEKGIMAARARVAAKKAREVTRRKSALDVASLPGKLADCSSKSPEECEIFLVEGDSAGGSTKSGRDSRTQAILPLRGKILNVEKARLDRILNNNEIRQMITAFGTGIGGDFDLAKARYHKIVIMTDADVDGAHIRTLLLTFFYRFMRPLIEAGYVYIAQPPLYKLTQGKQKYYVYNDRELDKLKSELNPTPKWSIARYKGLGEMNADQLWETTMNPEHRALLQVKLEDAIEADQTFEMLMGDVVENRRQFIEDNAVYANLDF
Chain of S. aureus GyrB ATPase (P0AES4 whole entry, further chain): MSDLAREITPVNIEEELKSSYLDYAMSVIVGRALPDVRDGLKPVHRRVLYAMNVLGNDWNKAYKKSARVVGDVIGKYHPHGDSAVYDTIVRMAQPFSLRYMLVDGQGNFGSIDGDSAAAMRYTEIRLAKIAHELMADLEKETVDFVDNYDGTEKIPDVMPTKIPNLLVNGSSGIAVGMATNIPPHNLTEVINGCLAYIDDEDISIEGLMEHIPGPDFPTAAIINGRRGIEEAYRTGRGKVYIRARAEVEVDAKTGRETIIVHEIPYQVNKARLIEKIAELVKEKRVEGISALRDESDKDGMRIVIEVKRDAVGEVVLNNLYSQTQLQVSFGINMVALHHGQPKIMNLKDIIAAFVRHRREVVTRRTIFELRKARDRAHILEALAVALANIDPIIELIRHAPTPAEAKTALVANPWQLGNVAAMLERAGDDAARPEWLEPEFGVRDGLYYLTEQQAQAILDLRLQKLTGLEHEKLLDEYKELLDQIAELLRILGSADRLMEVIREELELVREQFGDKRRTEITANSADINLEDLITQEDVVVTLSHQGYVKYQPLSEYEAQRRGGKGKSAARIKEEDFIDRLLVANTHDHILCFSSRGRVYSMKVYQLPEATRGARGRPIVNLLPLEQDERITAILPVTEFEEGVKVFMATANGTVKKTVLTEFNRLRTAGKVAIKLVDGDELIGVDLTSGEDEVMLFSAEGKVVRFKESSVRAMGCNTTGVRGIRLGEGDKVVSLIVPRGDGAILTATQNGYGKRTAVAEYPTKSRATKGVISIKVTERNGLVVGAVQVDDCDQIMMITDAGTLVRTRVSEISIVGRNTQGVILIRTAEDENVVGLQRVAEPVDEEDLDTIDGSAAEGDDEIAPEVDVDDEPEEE

Row | SMILES | inhibition at 1 µM | % Inhibition of S. aureus GyrB ATPase
1 | CCNC(=O)Nc1cc(-c2nc(C(F)(F)F)cs2)c(-c2ccc3c(c2)c(=O)c(C(=O)N2CCN(C)CC2)cn3C2CN(C)C2)cn1 [Example 167, 1-ethyl-3-(5-(1-(1-methylazetidin-3-yl)-3-(4-methylpiperazine-1-carbonyl)-4-oxo-1,4-dihydroquinolin-6-yl)-4-(4-(trifluoromethyl)thiazol-2-yl)pyridin-2-yl)urea] | 109% | 
2 | CCNC(=O)Nc1cc(-c2nc(C(F)(F)F)cs2)c(-c2ccc3c(c2)c(=O)c(C(=O)O)cn3[C@@H]2CCCN(CCN(CC)CC)C2)cn1 [Example 288, (S)-ethyl 1-(1-(2-(diethylamino)ethyl)piperidin-3-yl)-6-(6-(3-ethylureido)-4-(4-(trifluoromethyl)thiazol-2-yl)pyridin-3-yl)-4-oxo-1,4-dihydroquinoline-3-carboxylic acid trifluoroacetate] | 99% | 
3 | CCNC(=O)Nc1cc(-c2nc(-c3ccccc3)cs2)c(-c2ccc3c(=O)c(C(=O)NC)cn(CC)c3c2)cn1 [Example 39, 1-ethyl-7-(6-(3-ethylureido)-4-(4-phenylthiazol-2-yl)pyridin-3-yl)-N-methyl-4-oxo-1,4-dihydroquinoline-3-carboxamide] | 101% | 
4 | CCNC(=O)Nc1cc(-c2nc(-c3ccccc3)cs2)c(-c2ccc3c(=O)c(C(=O)O)cn(CC)c3c2)cn1 [Example 15, 1-ethyl-7-(6-(3-ethylureido)-4-(4-phenylthiazol-2-yl)pyridin-3-yl)-4-oxo-1,4-dihydroquinoline-3-carboxylic acid] | 101% | 
5 | CCNC(=O)Nc1cc(-c2nc(C(F)(F)F)cs2)c(-c2ccc3c(c2)c(=O)c(C(=O)NCCO)cn3C(COC)COC)cn1 [Example 148, 1-(1,3-dimethoxypropan-2-yl)-6-(6-(3-ethylureido)-4-(4-(trifluoromethyl)thiazol-2-yl)pyridin-3-yl)-N-(2-hydroxyethyl)-4-oxo-1,4-dihydroquinoline-3-carboxamide] | 93% | 
6 | CCNC(=O)Nc1cc(-c2nc(CC)cs2)c(-c2ccc3c(=O)c(C(=O)NC)cn(CC)c3c2)cn1 [Example 36, 1-ethyl-7-(4-(4-ethylthiazol-2-yl)-6-(3-ethylureido)pyridin-3-yl)-N-methyl-4-oxo-1,4-dihydroquinoline-3-carboxamide] | 64% | 
7 | CCNC(=O)Nc1cc(-c2nc(C(F)(F)F)cs2)c(-c2ccc3c(c2)c(=O)c(C(=O)O)cn3CC2CCN(CCN3CCOCC3)C2)cn1 (centres unmarked) [Example 306, 6-(6-(3-ethylureido)-4-(4-(trifluoromethyl)thiazol-2-yl)pyridin-3-yl)-1-((1-(2-morpholinoethyl)pyrrolidin-3-yl)methyl)-4-oxo-1,4-dihydroquinoline-3-carboxylic acid] | 105% | 100% and 102%
8 | CCNC(=O)Nc1cc(-c2nc(C(F)(F)F)cs2)c(-c2ccc3c(c2)c(=O)c(C(=O)O)cn3[C@@H](C)CO)cn1 [Example 71, (S)-6-(6-(3-ethylureido)-4-(4-(trifluoromethyl)thiazol-2-yl)pyridin-3-yl)-1-(1-hydroxypropan-2-yl)-4-oxo-1,4-dihydroquinoline-3-carboxylic acid] | 107% | 
9 | CCCNC(=O)Nc1cc(-c2nc(C(F)(F)F)cs2)c(-c2ccc3c(c2)c(=O)c(C(=O)N2CCN(S(C)(=O)=O)CC2)cn3CCN(C)C)cn1 [Example 157, 1-(5-(1-(2-(dimethylamino)ethyl)-3-(4-(methylsulfonyl)piperazine-1-carbonyl)-4-oxo-1,4-dihydroquinolin-6-yl)-4-(4-(trifluoromethyl)thiazol-2-yl)pyridin-2-yl)-3-propylurea] | 103% | 
10 | CC(C)NC(=O)Nc1cc(-c2nc(C(F)(F)F)cs2)c(-c2ccc3c(c2)c(=O)c(C(=O)O)cn3CCN(C)C)cn1 [Example 189, 1-(2-(dimethylamino)ethyl)-7-(6-(3-isopropylureido)-4-(4-(trifluoromethyl)thiazol-2-yl)pyridin-3-yl)-4-oxo-1,4-dihydroquinoline-3-carboxylate] | 100% | 
11 | CCCn1cc(C(=O)NCCCO)c(=O)c2ccc(-c3cnc(NC(=O)NCC)cc3-c3nc(C(F)(F)F)cs3)cc21 [Example 349, 7-{6-[(ethylcarbamoyl)amino]-4-[4-(trifluoromethyl)-1,3-thiazol-2-yl]pyridin-3-yl}-N-(3-hydroxypropyl)-4-oxo-1-propyl-1,4-dihydroquinoline-3-carboxamide] | 108% | 
12 | CCNC(=O)Nc1cc(-c2nc(C(F)(F)F)cs2)c(-c2ccc3c(c2)c(=O)c(C(=O)O)cn3CC2CCCCN2C)cn1 (centres unmarked) [Example 127, 6-(6-(3-ethylureido)-4-(4-(trifluoromethyl)thiazol-2-yl)pyridin-3-yl)-1-((1-methylpiperidin-2-yl)methyl)-4-oxo-1,4-dihydroquinoline-3-carboxylic acid, formic acid salt] | 117% | 
13 | CCNC(=O)Nc1cc(-c2nc(C(F)(F)F)cs2)c(-c2ccc3c(=O)c(C(=O)NC)cn(CC)c3c2)cn1 [Example 33, 1-ethyl-7-(6-(3-ethylureido)-4-(4-(trifluoromethyl)thiazol-2-yl)pyridin-3-yl)-N-methyl-4-oxo-1,4-dihydroquinoline-3-carboxamide] | 97% | 109%
14 | CCCNC(=O)Nc1cc(-c2nc(C(F)(F)F)cs2)c(-c2ccc3c(c2)c(=O)c(C(=O)O)cn3CCC2CCOCC2)cn1 [Example 200, 4-oxo-6-(6-(3-propylureido)-4-(4-(trifluoromethyl)thiazol-2-yl)pyridin-3-yl)-1-(2-(tetrahydro-2H-pyran-4-yl)ethyl)-1,4-dihydroquinoline-3-carboxylic acid] | 111% | 
15 | CC(C)NC(=O)Nc1cc(-c2nc(C(F)(F)F)cs2)c(-c2ccc3c(c2)c(=O)c(C(=O)O)cn3CCC2CCOCC2)cn1 [Example 197, 7-(6-(3-isopropylureido)-4-(4-(trifluoromethyl)thiazol-2-yl)pyridin-3-yl)-4-oxo-1-(2-(tetrahydro-2H-pyran-4-yl)ethyl)-1,4-dihydroquinoline-3-carboxylate] | 116% | 
16 | COCCn1cc(C(=O)O)c(=O)c2cc(-c3cnc(NC(=O)NC(C)C)cc3-c3nc(C(F)(F)F)cs3)ccc21 [Example 194, 6-(6-(3-isopropylureido)-4-(4-(trifluoromethyl)thiazol-2-yl)pyridin-3-yl)-1-(2-methoxyethyl)-4-oxo-1,4-dihydroquinoline-3-carboxylic acid] | 93% | 
17 | CCNC(=O)Nc1cc(-c2nc(C(F)(F)F)cs2)c(-c2ccc3c(c2)c(=O)c(C(=O)O)cn3C(CO)CO)cn1 [Example 75, 1-(1,3-dihydroxypropan-2-yl)-6-(6-(3-ethylureido)-4-(4-(trifluoromethyl)thiazol-2-yl)pyridin-3-yl)-4-oxo-1,4-dihydroquinoline-3-carboxylic acid] | 102% | 
18 | CCNC(=O)Nc1cc(-c2nc(C(F)(F)F)cs2)c(-c2ccc3c(c2)c(=O)c(C(=O)O)cn3[C@@H]2CCNC2)cn1 [Example 244, (R)-6-(6-(3-ethylureido)-4-(4-(trifluoromethyl)thiazol-2-yl)pyridin-3-yl)-4-oxo-1-(pyrrolidin-3-yl)-1,4-dihydroquinoline-3-carboxylic acid] | 111% | 
19 | CCNC(=O)Nc1cc(-c2nc(C(F)(F)F)cs2)c(-c2ccc3c(=O)c(C(=O)NCCN4CCN(C)CC4)cn(Cc4ccccc4)c3c2)cn1 [Example 358, 1-Benzyl-7-{6-[(ethylcarbamoyl)amino]-4-[4-(trifluoromethyl)-1,3-thiazol-2-yl]pyridin-3-yl}-N-[2-(4-methylpiperazin-1-yl)ethyl]-4-oxo-1,4-dihydroquinoline-3-carboxamide] | 95% | 
20 | CCNC(=O)Nc1cc(-c2nc(C(F)(F)F)cs2)c(-c2ccc3c(c2)c(=O)c(C(=O)O)cn3CCO)cn1 [Example 19, 6-(6-(3-Ethylureido)-4-(4-(trifluoromethyl)thiazol-2-yl)pyridin-3-yl)-1-(2-hydroxyethyl)-4-oxo-1,4-dihydroquinoline-3-carboxylic acid] | 98% | 
21 | CCNC(=O)Nc1cc(-c2nc(C(F)(F)F)cs2)c(-c2ccc3c(c2)c(=O)c(C(=O)O)cn3C[C@@H]2CCCNC2)cn1 [Example 242, (R)-1-((1-piperidin-3-yl)methyl)-6-(6-(3-ethylureido)-4-(4-(trifluoromethyl)thiazol-2-yl)pyridin-3-yl)-4-oxo-1,4-dihydroquinoline-3-carboxylic acid] | 104% | 
22 | CCNC(=O)Nc1cc(-c2nc(C(F)(F)F)cs2)c(-c2ccc3c(c2)c(=O)c(C(=O)N2CCN(S(=O)(=O)N(C)C)CC2)cn3C(COC)COC)cn1 [Example 142, 4-{[1-(1,3-dimethoxypropan-2-yl)-6-{6-[(ethylcarbamoyl)amino]-4-[4-(trifluoromethyl)-1,3-thiazol-2-yl]pyridin-3-yl}-4-oxo-1,4-dihydroquinolin-3-yl]carbonyl}-N,N-dimethylpiperazine-1-sulfonamide] | 97% | 
23 | CCNC(=O)Nc1cc(-c2nc(C(F)(F)F)cs2)c(-c2ccc3c(=O)c(C(=O)NCCN4CCOCC4)cn(CCC(C)C)c3c2)cn1 [Example 339, 7-{6-[(ethylcarbamoyl)amino]-4-[4-(trifluoromethyl)-1,3-thiazol-2-yl]pyridin-3-yl}-1-(3-methylbutyl)-N-[2-(morpholin-4-yl)ethyl]-4-oxo-1,4-dihydroquinoline-3-carboxamide] | 109% | 
24 | CCNC(=O)Nc1cc(-c2nc(C(F)(F)F)cs2)c(-c2ccc3c(c2)c(=O)c(C(=O)O)cn3CC2CCN(CCO)C2)cn1 (centres unmarked) [Example 308, 6-(6-(3-ethylureido)-4-(4-(trifluoromethyl)thiazol-2-yl)pyridin-3-yl)-1-((1-(2-hydroxyethyl)pyrrolidin-3-yl)methyl)-4-oxo-1,4-dihydroquinoline-3-carboxylic acid hydrochloride] | 111% | 
